Results published in US9561212B2, “Hepatitis C virus inhibitors” (BRISTOL-MYERS SQUIBB COMPANY, priority 2012, dated 2017).

System: HCV 1b genotype
Assay: microbe, parasite or virus in culture
Format: cell-based, Hepatitis C virus
Conditions: HCV 1b replicon; read-out: Range: EC50 ranges against HCV 1b

Substance | EC50 [nM]
dimethyl (1H,1′H-7,7′-binaphtho[1,2-d]imidazole-2,2′-diylbis((2S)-2,1-pyrrolidinediyl(1-(4-oxaspiro[2.5]oct-7-yl)-2-oxo-2,1-ethanediyl)))biscarbamate [QC13] | 0.00501 to 0.1
methyl (2-((2S)-2-(7-(2-((2S)-1-(((methoxycarbonyl)amino)(4-oxaspiro[2.5]oct-7-yl)acetyl)-2-pyrrolidinyl)-1H-benzimidazol-5-yl)-4,5-dihydro-1H-naphtho[1,2-d]imidazol-2-yl)-1-pyrrolidinyl)-1-(4-oxaspiro[2.5]oct-7-yl)-2-oxoethyl)carbamate [QC12] | 0.1 to 0.9
